The record followed here is US10590113B2, “6-hydroxy-4-oxo-1,4-dihydropyrimidine-5-carboxamides as APJ agonists” (priority 2016, dated 2020).

In the test the target is T1, human APJ receptor (Homo sapiens, UniProt P35414).
T1 construct: expressed in transfected cells; host or cells: HEK293
T1 sequence (P35414 1-380): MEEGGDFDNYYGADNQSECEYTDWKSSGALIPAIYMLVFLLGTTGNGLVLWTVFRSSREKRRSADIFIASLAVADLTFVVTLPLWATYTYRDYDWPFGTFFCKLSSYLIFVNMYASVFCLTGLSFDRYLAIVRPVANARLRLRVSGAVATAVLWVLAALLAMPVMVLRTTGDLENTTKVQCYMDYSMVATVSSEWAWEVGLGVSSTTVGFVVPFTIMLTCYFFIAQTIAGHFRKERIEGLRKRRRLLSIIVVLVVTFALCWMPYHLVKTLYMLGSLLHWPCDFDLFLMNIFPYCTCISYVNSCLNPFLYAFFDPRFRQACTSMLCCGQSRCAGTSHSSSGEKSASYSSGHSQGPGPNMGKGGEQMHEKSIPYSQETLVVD
The experiment in a line: Intracellular cAMP Accumulation Assay (APJ hcAMP, HTRF). The test is classed as cell-based. The conditions noted are these: read-out: hAPJ cAMP EC50 Potency range. The method, boiled down: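 Stably transfected HEK293 cells (5,000/well) incubated 30 min at room temperature with serially diluted compound, […] and 2 μM forskolin. cAMP measured by HTRF after 60 min with detection reagents, quantified against a cAMP standard curve; EC50 from variable-slope sigmoidal fit of inhibition of forskolin-stimulated cAMP.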

The mark [1] stands for this setting: human APJ, cAMP accumulation, potency range class.

Read-outs that look alike come from different tables or passages of the source.

For `CCn1ccc(-c2nc(=O)c(C(=O)N3CC[C@H](c4ccccc4)C3)c(O)n2-c2cccc(C(C)C)c2)n1` [Example 291, 2-(1-ethyl-1H-pyrazol-3-yl)-6-hydroxy-5-[(3R)-3-phenylpyrrolidine-1-carbonyl]-1-[3-(propan-2-yl)phenyl]-1,4-dihydropyrimidin-4-one], under setting [1], the EC50 fell in the range of 0.01 to 10 nM.
For the molecule `CCc1cccc(CC)c1-n1c(-c2csc(C(C)C)n2)nc(=O)c(C(=O)N2CC[C@@H](c3ccccc3)C2)c1O` [Example 299, 1-(2,6-diethylphenyl)-6-hydroxy-5-[(3S)-3-phenylpyrrolidine-1-carbonyl]-2-[2-(propan-2-yl)-1,3-thiazol-4-yl]-1,4-dihydropyrimidin-4-one], the EC50 under setting [1] lay in the range of 0.01 to 10 nM.
Same read-out and setting: then `CCc1cccc(CC)c1-n1c(-c2csc(C)n2)nc(=O)c(C(=O)N2CC[C@H](c3ccccc3)C2)c1O` [Example 301, 1-(2,6-diethylphenyl)-6-hydroxy-2-(2-methyl-1,3-thiazol-4-yl)-5-[(3R)-3-phenylpyrrolidine-1-carbonyl]-1,4-dihydropyrimidin-4-one], with 0.01 to 10 nM; and `CCc1cccc(CC)c1-n1c(-c2csc(C)n2)nc(=O)c(C(=O)N2CC[C@@H](c3ccccc3)C2)c1O` [Example 303, 1-(2,6-diethylphenyl)-6-hydroxy-2-(2-methyl-1,3-thiazol-4-yl)-5-[(3S)-3-phenylpyrrolidine-1-carbonyl]-1,4-dihydropyrimidin-4-one], with 0.01 to 10 nM.
As to `CC[C@@H](c1ccccc1)n1c(-c2ccc(F)c(C)c2)nc(=O)c(C(=O)N2CC[C@H](c3ccccc3)C2)c1O` [Example 314, 2-(4-fluoro-3-methylphenyl)-6-hydroxy-1-[(1S)-1-phenylpropyl]-5-[(3R)-3-phenylpyrrolidine-1-carbonyl]-1,4-dihydropyrimidin-4-one], under setting [1], the EC50 lay within 0.01 to 10 nM.
On the same count and under the same terms, then `CCc1cccc(CC)c1-n1c(-c2ccn(C3CC3)n2)nc(=O)c(C(=O)N2CC[C@@H](c3ccccc3)C2)c1O` [Example 316, 2-(1-cyclopropyl-1H-pyrazol-3-yl)-1-(2,6-diethylphenyl)-6-hydroxy-5-[(3S)-3-phenylpyrrolidine-1-carbonyl]-1,4-dihydropyrimidin-4-one], with 0.01 to 10 nM; and `CCc1cccc(CC)c1-n1c(-c2ccn(CC(C)C)n2)nc(=O)c(C(=O)N2CC[C@@H](c3ccccc3)C2)c1O` [Example 317, 1-(2,6-diethylphenyl)-6-hydroxy-2-[1-(2-methylpropyl)-1H-pyrazol-3-yl]-5-[(3S)-3-phenylpyrrolidine-1-carbonyl]-1,4-dihydropyrimidin-4-one], with 10 to 100 nM.
Consider `CCCc1nc(O)c(C(=O)N2CC[C@H](c3ccccc3)C2)c(=O)n1[C@@H](COC)c1ccccc1` [Example 329, 6-hydroxy-3-[(1R)-2-methoxy-1-phenylethyl]-5-[(3R)-3-phenylpyrrolidine-1-carbonyl]-2-propyl-3,4-dihydropyrimidin-4-one], for which, under setting [1], the EC50 is 10 to 100 nM.
Still for that read-out and setting: for `CCCc1nc(=O)c(C(=O)N2CC[C@@H](c3ccccc3)C2)c(O)n1[C@@H](COC)c1ccccc1` [Example 330, 6-hydroxy-3-[(1R)-2-methoxy-1-phenylethyl]-5-[(3S)-3-phenylpyrrolidine-l-carbonyl]-2-propyl-3,4-dihydropyrimidin-4-one] the value was 10 to 100 nM; for `CCCCc1nc(=O)c(C(=O)N2CCC(c3ncc(F)cc3F)C2)c(O)n1[C@@H](COC)c1ccccc1` (stereo partly drawn) [Example 349, 2-butyl-5-[3-(3,5-difluoropyridin-2-yl)pyrrolidine-1-carbonyl]-6-hydroxy-3-[(1R)-2-methoxy-1-phenylethyl]-3,4-dihydropyrimidin-4-one], 0.01 to 10 nM.
Same read-out and setting: then `CCCCc1nc(=O)c(C(=O)N2CCC(c3ncc(Cl)cc3F)C2)c(O)n1[C@@H](COC)c1ccccc1` (stereo partly drawn) [Example 350, 2-butyl-5-[3-(5-chloro-3-fluoropyridin-2-yl)pyrrolidine-1-carbonyl]-6-hydroxy-3-[(1R)-2-methoxy-1-phenylethyl]-3,4-dihydropyrimidin-4-one], with 0.01 to 10 nM; and `CCCCc1nc(=O)c(C(=O)N2CCC(c3ncc(F)cc3F)C2)c(O)n1[C@H](c1cccc(C#N)c1)C1CC1` (stereo partly drawn) [Example 351, 3-[(S)-{2-butyl-5-[3-(3,5-difluoropyridin-2-yl)pyrrolidine-1-carbonyl]-4-hydroxy-6-oxo-1,6-dihydropyrimidin-1-yl}(cyclopropyl)methyl]benzonitrile], with 0.01 to 10 nM.
Take `CCCCc1nc(=O)c(C(=O)N2CCN(Cc3cccc(Cl)c3Cl)CC2)c(O)n1-c1c(OC)cccc1OC` [Example 355, 2-butyl-5-(4-(2,3-dichlorobenzyl)piperazine-1-carbonyl)-1-(2,6-dimethoxyphenyl)-6-hydroxypyrimidin-4(1H)-one0.011]: the EC50 under setting [1] fell in the range of 0.01 to 10 nM.
Consider `CCCCc1nc(=O)c(C(=O)N2CCC(Oc3ccc(Cl)cc3)CC2)c(O)n1-c1c(OC)cccc1OC` [Example 373, 2-butyl-5-(4-(4-chlorophenoxy)piperidine-1-carbonyl)-1-(2,6-dimethoxyphenyl)-6-hydroxypyrimidin-4(1H)-one], for which the EC50 is 0.01 to 10 nM.
As for `CCOCc1nc(=O)c(C(=O)N2CCC(Cc3ccc(F)cc3)CC2)c(O)n1-c1c(OC)cccc1OC` [Example 374, 1-(2,6-dimethoxyphenyl)-2-(ethoxymethyl)-5-(4-(4-fluorobenzyl)piperidine-1-carbonyl)-6-hydroxypyrimidin-4(1H)-one], the EC50 was 0.01 to 10 nM.
The same measure, in the same setting: for `CCOCc1nc(=O)c(C(=O)N2CCC(Cc3ccc(Cl)cc3)CC2)c(O)n1-c1c(OC)cccc1OC` [Example 375, 5-(4-(4-chlorobenzyl)piperidine-1-carbonyl)-1-(2,6-dimethoxyphenyl)-2-(ethoxymethyl)-6-hydroxypyrimidin-4(1H)-one] the value was 0.01 to 10 nM; for `CCOCc1nc(=O)c(C(=O)N2CC[C@H](OCc3ccccc3)C2)c(O)n1-c1c(OC)cccc1OC` [Example 376, (S)-5-(3-(benzyloxy)pyrrolidine-1-carbonyl)-1-(2,6-dimethoxyphenyl)-2-(ethoxymethyl)-6-hydroxypyrimidin-4(1H)-one], 0.01 to 10 nM; for `CCOCc1nc(=O)c(C(=O)N2CCC(Oc3ccc(Cl)cc3)CC2)c(O)n1-c1c(OC)cccc1OC` [Example 377, 5-(4-(4-chlorophenoxy)piperidine-1-carbonyl)-1-(2,6-dimethoxyphenyl)-2-(ethoxymethyl)-6-hydroxypyrimidin-4(1H)-one], 0.01 to 10 nM.
On the same count and under the same terms, for `CCOCc1nc(=O)c(C(=O)N2CCC(Oc3cc(F)ccc3Cl)CC2)c(O)n1-c1c(OC)cccc1OC` [Example 378, 5-(4-(2-chloro-5-fluorophenoxy)piperidine-1-carbonyl)-1-(2,6-dimethoxyphenyl)-2-(ethoxymethyl)-6-hydroxypyrimidin-4(1H)-one] the value was 0.01 to 10 nM; for `CCOCc1nc(=O)c(C(=O)N2CCC(c3ccccc3F)CC2)c(O)n1-c1c(OC)cccc1OC` [Example 379, 1-(2,6-dimethoxyphenyl)-2-(ethoxymethyl)-5-(4-(2-fluorophenyl)piperidine-1-carbonyl)-6-hydroxypyrimidin-4(1H)-one], 0.01 to 10 nM; for `CCCCc1nc(=O)c(C(=O)N2CCC(Cc3ccc(C(F)(F)F)cc3)CC2)c(O)n1-c1c(OC)cccc1OC` [Example 380, 2-butyl-1-(2,6-dimethoxyphenyl)-6-hydroxy-5-(4-(4-(trifluoromethyl)benzyl)piperidine-1-carbonyl)pyrimidin-4(1H)-one], 0.01 to 10 nM.

Usually EC50 stands for the concentration needed to bring the measured effect to its halfway point.
